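Following 48 hours of exposure in 96-well plates, responses at five concentrations were used to interpolate endpoints linearly. At the TGI there is no net growth.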
Legend:
Assay in all cases: NCI-60 cell line screen, 48 h
ACHN renal = system: ACHN renal
OVCAR-3 ovarian = system: OVCAR-3 ovarian
MDA-MB-435 = system: MDA-MB-435
NCI-H23 lung = system: NCI-H23 lung
PC-3 prostate = system: PC-3 prostate
SW-620 colon = system: SW-620 colon
NCI-H460 lung = system: NCI-H460 lung
SF-268 CNS = system: SF-268 CNS
MALME-3M melanoma = system: MALME-3M melanoma
HOP-92 NSCLC = system: HOP-92 NSCLC
NCI-H226 lung = system: NCI-H226 lung
MDA-N = system: MDA-N
SK-MEL-28 melanoma = system: SK-MEL-28 melanoma
A549 NSCLC = system: A549 NSCLC
BT-549 breast = system: BT-549 breast
OVCAR-8 ovarian = system: OVCAR-8 ovarian
U251 CNS = system: U251 CNS
HCT-116 colon = system: HCT-116 colon
MCF7 breast = system: MCF7 breast
MDA-MB-231 breast = system: MDA-MB-231 breast
A498 renal = system: A498 renal
SF-539 CNS = system: SF-539 CNS
T-47D breast = system: T-47D breast
KM12 colon = system: KM12 colon
HOP-62 NSCLC = system: HOP-62 NSCLC
MOLT-4 leukemia = system: MOLT-4 leukemia
M14 melanoma = system: M14 melanoma
SR leukemia = system: SR leukemia
SK-MEL-5 melanoma = system: SK-MEL-5 melanoma
IGROV1 ovarian = system: IGROV1 ovarian
HT29 colon = system: HT29 colon
HCT-15 colon = system: HCT-15 colon
CCRF-CEM leukemia = system: CCRF-CEM leukemia
TK-10 renal = system: TK-10 renal
K-562 leukemia = system: K-562 leukemia
UACC-257 melanoma = system: UACC-257 melanoma
DU-145 prostate = system: DU-145 prostate
SNB-75 CNS = system: SNB-75 CNS
SF-295 CNS = system: SF-295 CNS
LOX IMVI melanoma = system: LOX IMVI melanoma
786-0 renal = system: 786-0 renal
SK-OV-3 ovarian = system: SK-OV-3 ovarian
UO-31 renal = system: UO-31 renal
HL-60(TB) leukemia = system: HL-60(TB) leukemia
EKVX NSCLC = system: EKVX NSCLC
SK-MEL-2 melanoma = system: SK-MEL-2 melanoma
SNB-19 CNS = system: SNB-19 CNS
SN12C renal = system: SN12C renal
OVCAR-5 ovarian = system: OVCAR-5 ovarian
RXF 393 renal = system: RXF 393 renal

Measured: TGI

[N-]=[N+]=CC(=O)CCC(=O)N(c1ccccc1)c1ccccc1
> 10 µM: ACHN renal | OVCAR-3 ovarian | MDA-MB-435 | NCI-H23 lung | PC-3 prostate | SW-620 colon | NCI-H460 lung | SF-268 CNS | MALME-3M melanoma | HOP-92 NSCLC | NCI-H226 lung | MDA-N | SK-MEL-28 melanoma | A549 NSCLC | BT-549 breast | OVCAR-8 ovarian | U251 CNS | HCT-116 colon | MCF7 breast | MDA-MB-231 breast | A498 renal | SF-539 CNS | T-47D breast | KM12 colon | HOP-62 NSCLC | MOLT-4 leukemia | M14 melanoma | SR leukemia | SK-MEL-5 melanoma | IGROV1 ovarian | HT29 colon | HCT-15 colon | CCRF-CEM leukemia | TK-10 renal | K-562 leukemia | UACC-257 melanoma | DU-145 prostate | SNB-75 CNS | SF-295 CNS | LOX IMVI melanoma | 786-0 renal | SK-OV-3 ovarian | UO-31 renal | HL-60(TB) leukemia | EKVX NSCLC | SK-MEL-2 melanoma | SNB-19 CNS | SN12C renal | OVCAR-5 ovarian | RXF 393 renal

From PubChem BioAssay (NCI)
